Target: human LPA1 receptor (Homo sapiens (Human), UniProt Q92633)
Test: Beta-arrestin recruitment assay to determine IC50 values for human LPAR1
Type: cell-based
Details: antagonist mode, Tango EDG2-bla U2OS cells, LPA 18:1 500 nM final
Description: Beta-Arrestin Recruitment Assay to Determine IC50 Values for Human LPAR1
The Tango™ EDG2-bla U2OS cells are obtained from Invitrogen. These cells contain the human LPA1 receptor cDNA linked to a TEV protease site and a Gal4-VP16 transcription factor integrated into the Tango™ GPCR-bla U2OS parental cell line. This parental cell line stably expresses a beta-arrestin/TEV protease fusion protein and the beta-lactamase (bla) reporter gene under the control of a UAS response element. Upon LPA (agonist) binding, LPA1 receptor gets activated, leading to arrestin-protease recruitment and proteolytic release of the transcription factor: The transcription factor then regulates transcription of a beta-lactamase reporter construct, which is measured upon addition of the live-cell substrate.
10′000 Tango™ EDG2-bla U2OS cells are seeded in a 384-well black with clear bottom plate in 30 μl Freestyle 293 Expression Medium (Invitrogen) and incubated for 20 h at 37° C., 5% CO2. […] IC50 is the concentration of antagonist inhibiting 50% of the maximal response.

Sequence of human LPA1 receptor (Q92633 whole entry): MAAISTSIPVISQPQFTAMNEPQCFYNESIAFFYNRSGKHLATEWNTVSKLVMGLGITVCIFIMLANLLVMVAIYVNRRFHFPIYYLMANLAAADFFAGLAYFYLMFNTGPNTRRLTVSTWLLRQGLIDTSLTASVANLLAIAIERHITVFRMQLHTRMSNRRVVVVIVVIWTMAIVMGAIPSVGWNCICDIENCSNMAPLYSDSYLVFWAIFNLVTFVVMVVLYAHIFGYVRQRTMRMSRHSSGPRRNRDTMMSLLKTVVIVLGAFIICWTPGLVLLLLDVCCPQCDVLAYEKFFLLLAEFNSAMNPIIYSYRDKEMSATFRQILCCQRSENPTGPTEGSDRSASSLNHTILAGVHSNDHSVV

Structure (SMILES)	IC50 [nM]
COC(=O)C(C)(C)CC(=O)N1CC(C(=O)Nc2ccc(C)nc2OC(F)F)(c2ccccc2C(C)C)C1 [Ex 12-81, methyl 4-(3-((2-(difluoromethoxy)-6-methylpyridin-3-yl)carbamoyl)-3-(2-isopropylphenyl)azetidin-1-yl)-2,2-dimethyl-4-oxobutanoate]	34
COC(=O)C(C)(C)CCN1CC(C(=O)Nc2ncc(Cl)cc2OC(F)F)(c2ccccc2C(C)C)C1 [Ex 78-1, methyl 4-(3-((5-chloro-3-(difluoromethoxy)pyridin-2-yl)carbamoyl)-3-(2-isopropylphenyl)azetidin-1-yl)-2,2-dimethylbutanoate]	457
Cc1ccc(NC(=O)C2(c3ccccc3C3CCCCC3)CNC2)c(OC(F)F)n1 [Ex 27, 3-(2-cyclohexylphenyl)-N-(2-(difluoromethoxy)-6-methylpyridin-3-yl)azetidine-3-carboxamide]	13
COc1nc(C)ccc1NC(=O)C1(c2ccccc2C(C)C)CN(C(=O)CCC(=O)O)C1 [Ex 12-62, 4-(3-(2-isopropylphenyl)-3-((2-methoxy-6-methylpyridin-3-yl)carbamoyl)azetidin-1-yl)-4-oxobutanoic acid]	65
COC(=O)C(C)(C)CN1CC(C(=O)Nc2ccc(C)nc2OC(F)F)(c2ccccc2C(C)C)C1 [Ex 11-24, methyl 3-(3-((2-(difluoromethoxy)-6-methylpyridin-3-yl)carbamoyl)-3-(2-isopropylphenyl)azetidin-1-yl)-2,2-dimethylpropanoate]	280
CC(C)c1ccccc1C1(C(=O)Nc2ncc(Br)cc2OC(F)F)CNC1 [Ex 73, N-(5-bromo-3-(difluoromethoxy)pyridin-2-yl)-3-(2-isopropylphenyl)azetidine-3-carboxamide]	10
Cc1ccc(NC(=O)C2(c3ccccc3C(C)C)CN(C(=O)C3(C(=O)O)CC3)C2)c(OC(F)F)n1 [Ex 12-64, 1-(3-((2-(difluoromethoxy)-6-methylpyridin-3-yl)carbamoyl)-3-(2-isopropylphenyl)azetidine-1-carbonyl)cyclopropane-1-carboxylic acid]	19
Cc1ccc(NC(=O)C2(c3ccccc3C(C)C)CN(C(=O)NCC(=O)O)C2)c(OC(F)F)n1 [Ex 17-4, (3-((2-(difluoromethoxy)-6-methylpyridin-3-yl)carbamoyl)-3-(2-isopropylphenyl)azetidine-1-carbonyl)glycine]	34
Cc1ccc(NC(=O)C2(c3ccccc3C(C)C)CN(C(=O)OCC3(C(=O)O)COC3)C2)c(OC(F)F)n1 [Ex 14-14, 3-(((3-((2-(difluoromethoxy)-6-methylpyridin-3-yl)carbamoyl)-3-(2-isopropylphenyl)azetidine-1-carbonyl)oxy)methyl)oxetane-3-carboxylic acid]	30
CC(=O)N(O)CCC(=O)N1CC(C(=O)Nc2ccc(C)nc2OC(F)F)(c2ccccc2C(C)C)C1 [Ex 12-132, N-(2-(difluoromethoxy)-6-methylpyridin-3-yl)-1-(3-(N-hydroxyacetamido)propanoyl)-3-(2-isopropylphenyl)azetidine-3-carboxamide]	35
Cc1ccc(NC(=O)C2(c3c(C)cccc3C(C)C)CN(C(=O)CC(C)(C)C(=O)O)C2)c(OC(F)F)n1 [Ex 39-1, 4-(3-((2-(difluoromethoxy)-6-methylpyridin-3-yl)carbamoyl)-3-(2-isopropyl-6-methylphenyl)azetidin-1-yl)-2,2-dimethyl-4-oxobutanoic acid]	51
COC(=O)c1[nH]ncc1S(=O)(=O)N1CC(C(=O)Nc2ccc(C)nc2OC(F)F)(c2ccccc2C(C)C)C1 [Ex 13-22, methyl 4-((3-((2-(difluoromethoxy)-6-methylpyridin-3-yl)carbamoyl)-3-(2-isopropylphenyl)azetidin-1-yl)sulfonyl)-1H-pyrazole-5-carboxylate]	270
Cc1ccc(NC(=O)C2(c3ccccc3C(C)C)CN(C(=O)c3nnn[nH]3)C2)c(OC(F)F)n1 [Ex 12-18, N-(2-(difluoromethoxy)-6-methylpyridin-3-yl)-3-(2-isopropylphenyl)-1-(1H-tetrazole-5-carbonyl)azetidine-3-carboxamide]	25
Cc1ccc(NC(=O)C2(c3ncccc3C(C)C)CN(C(=O)NC3CC3)C2)c(OC(F)F)n1 [Ex 63, N1-cyclopropyl-N3-(2-(difluoromethoxy)-6-methylpyridin-3-yl)-3-(3-isopropylpyridin-2-yl)azetidine-1,3-dicarboxamide]	8
Cc1ccc(NC(=O)C2(c3ccccc3C(C)C)CN(CCCC(C)(C)[N+](=O)[O-])C2)c(OC(F)F)n1 [Ex 11-61, N-(2-(difluoromethoxy)-6-methylpyridin-3-yl)-3-(2-isopropylphenyl)-1-(4-methyl-4-nitropentyl)azetidine-3-carboxamide]	39
Cc1cnc(NC(=O)C2(c3ccccc3C(C)C)CN(S(=O)(=O)CCC(=O)OCc3ccccc3)C2)c(OC(F)F)c1 [Ex 80-1, benzyl 3-((3-((3-(difluoromethoxy)-5-methylpyridin-2-yl)carbamoyl)-3-(2-isopropylphenyl)azetidin-1-yl)sulfonyl)propanoate]	55
COCCN(CC(=O)O)CC(=O)N1CC(C(=O)Nc2ccc(C)nc2OC(F)F)(c2ccccc2C(C)C)C1 [Ex 55]	44
Cc1ccc(NC(=O)C2(c3ccccc3C(C)C)CCN(C[C@@H](O)CO)CC2)c(OC(F)F)n1 [Ex 11-19, (R)-N-(2-(difluoromethoxy)-6-methylpyridin-3-yl)-1-(2,3-dihydroxypropyl)-4-(2-isopropylphenyl)piperidine-4-carboxamide]	14
Cc1ccc(NC(=O)C2(c3ccccc3C(C)C)CN(c3ccnc(C)n3)C2)c(OC(F)F)n1 [Ex 18-34, N-(2-(difluoromethoxy)-6-methylpyridin-3-yl)-3-(2-isopropylphenyl)-1-(2-methylpyrimidin-4-yl)azetidine-3-carboxamide]	3
Cc1ccc(NC(=O)C2(c3ccccc3C(C)C)CN(C(=O)CN3CC(=O)NC3=O)C2)c(OC(F)F)n1 [Ex 12-126, N-(2-(difluoromethoxy)-6-methylpyridin-3-yl)-1-(2-(2,4-dioxoimidazolidin-1-yl)acetyl)-3-(2-isopropylphenyl)azetidine-3-carboxamide]	46
Cc1ccc(NC(=O)C2(c3ccccc3C(C)C)CN(Cc3nnn[nH]3)C2)c(OC(F)F)n1 [Ex 11-8, 1-((1H-tetrazol-5-yl)methyl)-N-(2-(difluoromethoxy)-6-methylpyridin-3-yl)-3-(2-isopropylphenyl)azetidine-3-carboxamide]	55
Cc1ccc(NC(=O)C2(c3ccccc3C3CCCC3)CNC2)c(OC(F)F)n1 [Ex 25, 3-(2-cyclopentylphenyl)-N-(2-(difluoromethoxy)-6-methylpyridin-3-yl)azetidine-3-carboxamide]	8.6
Cc1ccc(NC(=O)C2(c3ccccc3C(C)C)CN(S(=O)(=O)/C=C/C(=O)O)C2)c(OC(F)F)n1 [Ex 13-21, (E)-3-((3-((2-(difluoromethoxy)-6-methylpyridin-3-yl)carbamoyl)-3-(2-isopropylphenyl)azetidin-1-yl)sulfonyl)acrylic acid]	14
Cc1ccc(NC(=O)C2(c3ccccc3C(C)C)CN(Cc3ccnn3C)C2)c(OC(F)F)n1 [Ex 11-22, N-(2-(difluoromethoxy)-6-methylpyridin-3-yl)-3-(2-isopropylphenyl)-1-((1-methyl-1H-pyrazol-5-yl)methyl)azetidine-3-carboxamide]	108
COC(=O)Cn1cc(CN2CC(C(=O)Nc3ccc(C)nc3OC(F)F)(c3ccccc3C(C)C)C2)nn1 [Ex 11-48, methyl 2-(4-((3-((2-(difluoromethoxy)-6-methylpyridin-3-yl)carbamoyl)-3-(2-isopropylphenyl)azetidin-1-yl)methyl)-1H-1,2,3-triazol-1-yl)acetate]	304
COC(=O)C1(CS(=O)(=O)N2CC(C(=O)Nc3ccc(C)nc3OC(F)F)(c3ccccc3C(C)C)C2)COC1 [Ex 13-15, methyl 3-(((3-((2-(difluoromethoxy)-6-methylpyridin-3-yl)carbamoyl)-3-(2-isopropylphenyl)azetidin-1-yl)sulfonyl)methyl)oxetane-3-carboxylate]	280
Cc1ccc(NC(=O)C2(c3ccccc3C(C)C)CN(Cc3nc(CC(=O)O)co3)C2)c(OC(F)F)n1 [Ex 11-59, 2-(2-((3-((2-(difluoromethoxy)-6-methylpyridin-3-yl)carbamoyl)-3-(2-isopropylphenyl)azetidin-1-yl)methyl)oxazol-4-yl)acetic acid]	38
COC(=O)c1cnc(N2CC(C(=O)Nc3ccc(C)nc3OC(F)F)(c3ccccc3C(C)C)C2)n1C [Ex 18-35, methyl 2-(3-((2-(difluoromethoxy)-6-methylpyridin-3-yl)carbamoyl)-3-(2-isopropylphenyl)azetidin-1-yl)-1-methyl-1H-imidazole-5-carboxylate]	30
COC(=O)C1(CNC(=O)N2CC(C(=O)Nc3ccc(C)nc3OC(F)F)(c3ccccc3C(C)C)C2)CC1 [Ex 17-14, methyl 1-((3-((2-(difluoromethoxy)-6-methylpyridin-3-yl)carbamoyl)-3-(2-isopropylphenyl)azetidine-1-carboxamido)methyl)cyclopropane-1-carboxylate]	7
CCCOc1nc(C)ccc1NC(=O)C1(c2ccccc2C(C)C)CN(S(N)(=O)=O)C1 [Ex 59, 3-(2-isopropylphenyl)-N-(6-methyl-2-propoxypyridin-3-yl)-1-sulfamoylazetidine-3-carboxamide]	270

From US12344597B2, “Alkoxy-substituted pyridinyl derivatives as LPA1 receptor antagonists and their use in the treatment of fibrosis” (IDORSIA PHARMACEUTICALS LTD, priority 2018, dated 2025)
